Viability data for 70 compounds are collected here from PMC12040169 (PLOS Biology, 2025).

Structures are written as SMILES.

The series is described as follows: in vitro. The following applies: human, hela cells, % viability.

A word on the viability: it is a read-out of living cells in per cent, often relative to untreated cells. For the compound `CSCC(=O)N[C@H]1CCN2C(=O)N(c3cccc(C(C)=O)c3)C(=O)[C@@H]2C1` [CBK289546], the viability at 28.5 h, 10 µM was found to be 90.6%.
As to `Cc1nnsc1C(=O)N[C@H]1CCN2C(=O)N(CCCl)C(=O)[C@@H]2C1` [CBK289550], the viability at 28.5 h, 10 µM (bulk resorufin, single well) was found to be 95.6%.
On to `O=C(N[C@H]1CCN2C(=O)N(CCCl)C(=O)[C@@H]2C1)c1ccncc1` [CBK289551], for which the viability at 28.5 h, 10 µM (bulk resorufin, single well) worked out at 88.3%.
For `COCC(=O)N[C@H]1CCN2C(=O)c3cc(-c4ccccc4F)ccc3NC(=O)[C@@H]2C1` [CBK289553], the viability at 28.5 h, 10 µM is 95.6%.
`CC(C)C[C@H]1NC(=O)[C@@H]2C[C@@H](NC(=O)CS(=O)(=O)c3ccccc3)CCN2C1=O` [CBK289554]: the viability at 28.5 h, 10 µM worked out at 89.1%.
Consider `COc1cc(SC)ccc1C(=O)N[C@H]1CCN2C(=O)[C@@H](CC(=O)O)NC(=O)[C@@H]2C1` [CBK289555], for which the viability at 28.5 h, 10 µM turned out to be 108%.
As to `O=C(N[C@H]1CCN2C(=O)N(c3ccc(Br)cc3)C(=O)[C@@H]2C1)c1cccnc1` [CBK289557], the viability at 28.5 h, 10 µM turned out to be 104%.
Turning to `COc1ccc(-c2ccc3c(c2)C(=O)N2CC[C@H](N)C[C@H]2C(=O)N3)c(OC)c1` [CBK289560], the viability at 28.5 h, 10 µM came out at 104%.
Still for that read-out and setting: with `COCC(=O)N[C@H]1CCN2C(=O)c3cc(-c4cccc(C)c4C)ccc3NC(=O)[C@@H]2C1` [CBK289562] the figure was 90.7%; with `O=C(N[C@H]1CCN2C(=O)c3cc(-c4ccsc4)ccc3NC(=O)[C@@H]2C1)c1cccs1` [CBK289563], 103%; with `CNCC(=O)N[C@H]1CCN2C(=O)c3ccc(Cl)cc3NC(=O)[C@@H]2C1` [CBK289566], 83.6%.
Still for that read-out and setting: with `C=CCNC(=O)N[C@H]1CCN2C(=O)c3ccccc3NC(=O)[C@@H]2C1` [CBK289568] the figure was 102%; with `C=CCNC(=O)N[C@H]1CCN2C(=O)c3ccc(Cl)cc3NC(=O)[C@@H]2C1` [CBK289569], 95.9%.
Same read-out and setting: with `C[C@]1(CO)[C@H]2Cc3sc(-c4ccccc4)nc3[C@@H](CC(=O)O)[C@]2(C)CC[C@H]1O` [CBK289572] the figure was 84.5%.
Turning to `COC[C@@H]1OC[C@@]2(C)C3CC[C@@H](O)[C@@H](CC(=O)N4CCCCC4)[C@]3(C)CC[C@H]2O1` (stereo partly shown) [CBK289573], the viability at 28.5 h, 10 µM was determined as 88.3%.
With `COC[C@@H]1OC[C@@]2(C)C3CC[C@@H](O)[C@@H](CC(=O)NCc4ccccc4)[C@]3(C)CC[C@H]2O1` (stereo partly shown) [CBK289574], the viability at 28.5 h, 10 µM came out at 79.1%.
Same read-out and setting: with `C[C@]1(CO)C2CC[C@H]3OC(=O)C[C@H]3[C@]2(C)CC[C@H]1OC(=O)Nc1ccccc1` (stereo partly shown) [CBK289577] the figure was 84.5%; with `CC(C)NC(=O)N1CCN2C(=O)N(c3ccccc3)C(=O)[C@@H]2C1` [CBK289579], 99.4%.
The same measure, in the same setting: the value for `O=C(CS(=O)(=O)c1ccccc1)N1CCN2C(=O)N(C3CCCCC3)C(=O)[C@H]2C1` [CBK289580] was 89.6%; that for `O=C1Nc2ccc(Br)cc2C(=O)N2CCNC[C@H]12` [CBK289583] was 85.1%; that for `O=C1Nc2ccc(-c3cccc(C(F)(F)F)c3)cc2C(=O)N2CCN(C(=O)C3CC3)C[C@H]12` [CBK289585] was 79.4%.
Same read-out and setting: with `O=C1Nc2cc(Cl)ccc2C(=O)N2CCN(C(=O)C3CCCCC3)C[C@H]12` [CBK289586] the figure was 87.1%; with `COCC(=O)N1CCN2C(=O)c3ccc(Cl)cc3NC(=O)[C@H]2C1` [CBK289588], 84.6%; with `O=C1Nc2ccc(Br)cc2C(=O)N2CCN(C(=O)c3ccccc3)C[C@H]12` [CBK289589], 121%.
For the compound `O=C1Nc2ccc(-c3ccc(Cl)cc3)cc2C(=O)N2CCN(C(=O)c3cccnc3)C[C@H]12` [CBK289590], the viability at 28.5 h, 10 µM is 107%.
Still for that read-out and setting: the value for `O=C1Nc2ccc(-c3ccccc3F)cc2C(=O)N2CCN(C(=O)c3cccnc3)C[C@H]12` [CBK289591] was 111%.
In the case of `CC(C)NC(=O)N1CCN2C(=O)c3cc(-c4ccc(Cl)cc4)ccc3NC(=O)[C@H]2C1` [CBK289596], the viability at 28.5 h, 10 µM came out at 79.5%.
The same measure, in the same setting: with `COc1ccc(C[C@@H]2NC(=O)[C@@H]3CN(C(=O)c4ccc(OC)cc4)CCN3C2=O)cc1` [CBK289598] the figure was 94.1%.
The same measure, in the same setting: with `CN(C)c1ccc(C(=O)N2CCN3C(=O)[C@H](Cc4ccc(F)cc4)NC(=O)[C@H]3C2)cc1` [CBK289601] the figure was 109%; with `O=C1N[C@@H](Cc2ccc(F)cc2)C(=O)N2CCN(C(=O)N3CCOCC3)C[C@H]12` [CBK289603], 109%.
Same read-out and setting: with `COCC(=O)N1CCN2C(=O)[C@@H]3C[C@@H](OCc4ccc(F)cc4)CN3C(=O)[C@@H]2C1` [CBK289605] the figure was 99.1%.
As to `COC(=O)[C@@H]1CN(C(=O)Nc2ccccc2)CCN1C(C)=O` [CBK289606], the viability at 28.5 h, 10 µM stood at 88%.
On the same count and under the same terms, the value for `COC(=O)[C@@H]1CN(C(=O)Nc2ccccc2)CCN1C(=O)C1CCCCC1` [CBK289607] was 91%; that for `COCC(=O)N1CCN(C(=O)c2cccc(F)c2)C[C@H]1C(=O)OC` [CBK289608] was 89.4%; that for `CC(C)N1C(=O)[C@@H]2CN(C(=O)C3CCCC3)CCN2C1=O` [CBK289612] was 88.8%.
The same measure, in the same setting: with `COCC(=O)N1CCN(C(=O)N2CCOCC2)C[C@@H]1C(=O)OC` [CBK289613] the figure was 109%; with `COCC(=O)N1CCN(C(=O)c2cccs2)[C@@H](C(=O)OC)C1` [CBK289614], 111%; with `COc1cccc(NC(=O)N2CCN3C(=O)[C@H](CC4CCCCC4)NC(=O)[C@H]3C2)c1` [CBK289615], 117%.
Still for that read-out and setting: with `COc1ccc(C[C@@H]2NC(=O)[C@H]3CN(C(=O)c4cccn4C)CCN3C2=O)cc1` [CBK289616] the figure was 93.4%; with `COC(=O)[C@@H](C)NC(=O)[C@@H]1CN(C(=O)c2cccc(F)c2)CCN1C(C)=O` [CBK289620], 91.3%.
Consider `COC(=O)[C@@H](C)NC(=O)[C@@H]1CN(C(=O)c2cccc(F)c2)CCN1C(=O)C1CCCCC1` [CBK289621], for which the viability at 28.5 h, 10 µM stood at 87.4%.
On the same count and under the same terms, the value for `COC(=O)[C@@H](C)NC(=O)[C@@H]1CN(S(C)(=O)=O)CCN1C(=O)c1cccs1` [CBK289623] was 89.6%.
The same measure, in the same setting: with `COC(=O)[C@@H](C)NC(=O)[C@H]1CN(C(=O)c2cccnc2)CCN1C(=O)NC1CCCCC1` [CBK289632] the figure was 86%.
Still for that read-out and setting: the value for `CC(=O)N1CCN(C(=O)NC(C)C)C[C@@H]1C(=O)N[C@@H](CC1CCCCC1)C(N)=O` [CBK289633] was 91.8%; that for `O=C1NCCC[C@@H]1NC(=O)[C@H]1CN(C(=O)c2ccccc2)CCN1C(=O)c1cccnc1` [CBK289634] was 108%; that for `C[C@@H](c1ccccc1)N1C(=O)[C@@H]2CN(S(=O)(=O)c3cccs3)CCN2C1=O` [CBK289635] was 91.3%.
Regarding `C[C@@H](c1ccccc1)N1C(=O)[C@@H]2CN(C(=O)COCC(=O)O)CCN2C1=O` [CBK289636], the viability at 28.5 h, 10 µM turned out to be 94.3%.
The same measure, in the same setting: with `C[C@H](c1ccccc1)N1C(=O)[C@@H]2CN(C(=O)CC(C)(C)C)CCN2C1=O` [CBK289638] the figure was 89.5%; with `CC(C)(C)c1cc(CC2(NCc3ccco3)COC2)no1` [CBK289642], 108%.
Still for that read-out and setting: with `c1ccc(CNC2(Cc3cc(-c4ccccn4)on3)COC2)cc1` [CBK289643] the figure was 87.9%.
The same measure, in the same setting: the value for `Oc1cccc(-c2cc(CC3(NCc4ccc(F)cc4)COC3)no2)c1` [CBK289646] was 108%.
`N#Cc1ccc(CNC2(Cc3cc(CO)on3)COC2)cc1` [CBK289647]: the viability at 28.5 h, 10 µM came out at 104%.
On to `O=C(N[C@@H](Cn1cc(Cl)c(=O)[nH]c1=O)C(=O)O)C1CCCCC1` [CBK289648], for which the viability at 28.5 h, 10 µM came to 98.7%.
Still for that read-out and setting: with `O=C(N[C@@H](Cn1cc(Cl)c(=O)[nH]c1=O)C(=O)O)c1cccc(F)c1` [CBK289650] the figure was 118%; with `O=C(O)COCC(=O)N1C[C@@H]2OCC(=O)N(Cc3ccccc3)[C@@H]2C1` [CBK289652], 101%.
The same measure, in the same setting: with `Oc1ccccc1CNC1(Cc2cc(-c3ccc(F)cc3)on2)COC1` [CBK289655] the figure was 95.8%; with `CC(C)(O)c1cc(CC2(NCC3CCCCC3)COC2)no1` [CBK289656], 89.7%.
Turning to `O=C(N[C@@H](Cn1cc(Cl)c(=O)[nH]c1=O)C(=O)O)C1CCCC1` [CBK289658], the viability at 28.5 h, 10 µM worked out at 113%.
Regarding `O=C(N[C@@H](Cn1cc(F)c(=O)[nH]c1=O)C(=O)O)C1CCCC1` [CBK289660], the viability at 28.5 h, 10 µM amounted to 109%.
Same read-out and setting: with `O=C(N[C@@H](Cn1cc(F)c(=O)[nH]c1=O)C(=O)O)C1CCCCC1` [CBK289661] the figure was 89.2%; with `CCc1cn(C[C@H](NC(=O)C2CCC2)C(=O)O)c(=O)[nH]c1=O` [CBK289663], 97.1%; with `COc1ccnc(N2C[C@@H]3OCC(=O)N(Cc4ccccc4)[C@@H]3C2)n1` [CBK289666], 91%.
Still for that read-out and setting: the value for `CC(=O)N1C[C@@H]2OCC(=O)N(Cc3nccn3C)[C@@H]2C1` [CBK289668] was 90.6%; that for `Cc1cc(C(=O)Nc2ccc([C@@H](O)[C@H]3COCC(=O)N3Cc3ccccc3)cc2)n(C)n1` [CBK289669] was 89%.
Same read-out and setting: the value for `CCNC1(Cc2cc(C(=O)N3CCCCC3)on2)COC1` [CBK289671] was 84.2%; that for `N#Cc1ccc(CNC2(Cc3cc(C(=O)N4CCCCC4)on3)COC2)cc1` [CBK289672] was 87%; that for `COc1ccc(CN2C(=O)COC[C@@H]2[C@H](O)c2ccc(NC(C)=O)cc2)cc1` [CBK289674] was 95.6%.
`COc1ccc(CN2C(=O)COC[C@@H]2[C@H](O)c2ccc(NC(=O)c3ccc(OC)cc3)cc2)cc1` [CBK289675]: the viability at 28.5 h, 10 µM came to 95.9%.
As for `CCN1C(=O)COC[C@@H]1[C@H](O)c1ccc(NC(=O)Cc2ccc(OC)cc2)cc1` [CBK289676], the viability at 28.5 h, 10 µM turned out to be 90.2%.
The same measure, in the same setting: with `CCC(CC)C(=O)Nc1ccc([C@@H](O)[C@H]2COCC(=O)N2Cc2ccc(OC)cc2)cc1` [CBK289677] the figure was 102%.
